“And” between values parts separate entries of the source, which are not always exact repeats. Equal entries are not always repeated. “Also recorded” adds a separate entry of the source.
Key:
[1] = tested on: HeLa cells; assay: Clonogenic assay for cell survival; format: cell-based, human; conditions: for cell death, individual treatment: pro-13 5 μM, pro-1 5 μM, MMS 0.1 mM; for enhancement (potentiation) of MMS cytotoxicity: compared to individual agents
Experimental: HeLa (human cervical carcinoma) cells were maintained in Dulbecco's Modified Eagle's Medium (DMEM), supplemented with 10% fetal bovine serum (FBS), 100 U mL^−1 of penicillin and 100 μg mL^−1 of streptomycin at 37° C. in a humidified incubator at 5% CO2. […] At 90% confluency, there are around 1.5×10^7 cells in one dish of 150 mm×25 mm. Cell viability assay. […] After the indicated time, the medium was removed from the cell culture by aspiration, and washed once with PBS. A stock solution of bleomycin sulphate (1 mM) in DMSO was diluted in the culture medium to 2 μM and then added to the plates keeping the quantity of DMSO constant at 1% for all tests. Cells were then incubated for 2 h at 37° C. in a CO2 incubator. The medium was then subsequently replaced with fresh DMEM-FBS and incubation was continued for an additional 1 or 2 h at 37° C. in a CO2 incubator. […] A portion (10 μL) of the cell suspension was thoroughly mixed with 10 μL of 0.4% solution of trypan blue in PBS (pH 7.2 to 7.3), and placed on a counting slide (BIO-RAD) to count the % of live cells using a TC20 automated cell counter (BIO-RAD). A control experiment without treating with bleomycin sulphate was carried out in parallel. All the experiments were carried out at least 3 times, and each experiment consisted of 3 replicates.
After overnight incubation at 37° C. in a humidified atmosphere of 5% CO2, cells were subjected to the appropriate DNA damaging conditions (or controls). For alkylation experiments, cells were incubated with MMS (0, 0.1, or 0.2 mM), with or without pro-13 (5 μM) for 1 or 2 h. For experiments involving recovery after MMS treatment, the medium containing MMS and/or pro-13 was replaced after 2 h with fresh medium with or without pro-13 (5 μM) and incubation continued for 2-8 h. For BLM experiments, cells were incubated with BLM (2 μM), with or without pro-13 (5 μM) for 2 h, at which time the medium was replaced with fresh medium containing only pro-13 (5 μM) and incubation was continued for 2 h. The growth medium was then removed from each well and the cells were washed with PBS (2×1 mL). […] The single cell suspensions were collected in 1.6 mL tubes and counted using a Bio-Rad TC20 Automated Cell Counter. Stock solutions of single cell suspensions were made in two groups for each concentration with 500 cells/mL (for untreated control) and 1500 cells/mL (for treated cells), respectively. These cells were seeded in 6 well plates (well size; 35 mm×18 mm) in 2 mL of 10% DMEM-FBS. The plates were incubated in humidified atmosphere with 5% CO2 for 7 days. After 7 days, the growth medium was discarded and the attached cells were treated with 0.2% w/v crystal violet solution. The excess dye was washed with water and the colonies were counted under a stereomicroscope. Plating efficiencies (PE) and survival fractions (SF) were calculated as follows: PE=number of colonies[…]number of cells seeded; SF=PE[…]PE (control).

[2] = tested on: HeLa cells; assay: AP/dRP site accumulation in genomic DNA (aldehyde reactive probe); format: cell-based, human
Excerpt: Evidence that pro-13 leads to BER inhibition in HeLa cells was obtained by determining its effect on the level of aldehyde reactive probe (ARP) sites (Table 1). ARP is routinely used to quantify AP sites in DNA, and has been employed to validate Ape1 inhibition, but dRP detection via this method was not known. Rai et al., 2012; Dorjsuren et al., 2012; Ide et al., 1993; Asaeda et al., 1998. […] Inhibition of Pol β (and/or Pol λ) should lead to a build-up of dRP sites instead of AP, which would be indistinguishable from AP using ARP (Scheme 11). […] The level of AP/dRP sites in the genomic DNA isolated from HeLa cells treated with MMS, pro-13 or a combination, was subsequently measured. Following treatment with the DNA damaging agent (1 h), the medium was replaced with fresh medium with or without pro-13 (5 μM), and the cells were incubated an additional 23 h. The level of ARP reactive sites increased approximately 3-fold when cells were treated with a combination of MMS and pro-13 compared to just the alkylating agent (Table 1), consistent with the inhibition of BER in cells treated with the proinhibitor.
HeLa cells (approximately 1×10^7) were plated in 150 mm×25 mm dishes and treated with DMSO (1% final concentration), MMS (0.3 or 0.4 mM), or pro-13 (5 μM) alone or with a combination of MMS (0.3 or 0.4 mM), and pro-13 (5 μM) for 1 h at 37° C. The cellular medium was then replaced with fresh DMEM-FBS and incubation was continued for 23 h at 37° C. in a CO2 incubator in the absence or presence of pro-13 (5 μM). Cells were then harvested with 0.25% Trypsin-EDTA, and the genomic DNA of each sample was isolated according to Dojindo Genomic DNA isolation kit (www.dojindo.com/TechnicalManual/Manual_GKO3.pdf). The concentration of genomic DNA was measured at 260 nm and adjusted to 100 ng/μL. An aliquot of purified DNA (1 μg) was labeled with 10 μL of aldehyde reactive probe (ARP) reagent (N′-aminooxymethylcarbonylhydrazino-D-biotin), and AP/dRP sites were determined using the DNA damage quantification kit from Dojindo Molecular Technologies (DK02-12) by measuring the absorbance at 650 nm using an ELISA microplate reader (BioRad).

[3] = tested on: HeLa cells; assay: Comet assay to visualize DNA damage; format: cell-based, human; conditions: BLM 2 μM 2 h
Experimental: Bleomycin sulphate treatment of HeLa cells was carried out exactly in the same way as described above. The only difference was that approximately […] HeLa cells were plated in each well of the 6 wells culture plate. After the required incubation steps, the medium was aspirated from the cell culture, and washed with PBS (3×) by adding 5 mL of PBS to each well, scratching with a cell scraper (3 cm blade) and transferring the cells to a 15 mL Falcon tube. Cells were pelleted by centrifuging at 3000 g for 10 min at room temperature. Cells were resuspended in PBS and pelleted again. For the comet assay, cells were suspended in 2 mL PBS/well and counted (generally approximately 1×10^7/mL). An aliquot (10 μL) of the cell suspension was diluted to 1×10^5 cells/mL using PBS and used in an Oxiselect™ Comet Assay Kit (Cell Biolabs, INC. Catalog number STA-350) according to the product manual (www.cellbiolabs.com/sites/default/files/STA-350-comet-assay-kit.pdf). In brief, cell samples were combined with Comet Agarose at 1:10 ratio (v/v), titrurated with a pipette to mix, and immediately pipette 75 μL/well onto the OxiSelect™ Comet Slide. […] View slides by a fluorescence microscopy using a FITC filter. […] The relative tail lengths were determined with Open Comet software.

[4] = biological target: Ape1 (Homo sapiens, UniProt P27695); assay: Ape1 activity on a duplex containing AP; format: biochemical
Ape1, sequence (P27695 whole entry): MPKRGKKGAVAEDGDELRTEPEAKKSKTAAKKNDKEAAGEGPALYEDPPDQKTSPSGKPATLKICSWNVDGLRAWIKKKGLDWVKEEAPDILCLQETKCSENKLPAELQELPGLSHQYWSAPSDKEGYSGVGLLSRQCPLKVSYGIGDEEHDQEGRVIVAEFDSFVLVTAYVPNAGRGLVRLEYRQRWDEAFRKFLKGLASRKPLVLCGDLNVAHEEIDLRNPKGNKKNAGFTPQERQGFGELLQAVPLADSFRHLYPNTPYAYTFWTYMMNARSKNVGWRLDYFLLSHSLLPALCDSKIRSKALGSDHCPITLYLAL

For `COc1cc(Cl)c(/C=N/OC2C[C@H](n3cc(CNC(=O)c4cc5c(O)cccc5cc4O)c(=O)[nH]c3=O)O[C@@H]2COP(=O)(O)OCC2C[C@H](OC(C)=O)O[C@@H]2OC(C)=O)c(Cl)c1O` (stereo partly drawn) [pro-13], the “cytotoxicity of proinhibitor alone” value ([1]; 5 μM) was “modest cytotoxic effects”, the cell death ([1]; 5 μM alone, 1 h) was 2% and the cells survive ([1]; 5 μM alone, 2 h) was 93%. The “synergism with MMS” value ([1]; 5 μM, MMS 0.1 or 0.2 mM, 1 or 2 h) was “synergistic effects”, the “cytotoxicity of proinhibitor alone” value ([1]; 5 μM, listed as Pro-13) was “only slightly cytotoxic; also recorded: only weakly cytotoxic” and the “cell death, individual treatment” value ([1]; 2 h) was 7%. The “fraction cell survival relative to cells incubated in absence of pro-13” value ([1]; MMS 0.1 mM + pro-13 2 h, then 4 h additional incubation with pro-13 5 μM) was 1/7, the cells survive ([1]; MMS 0.1 mM + pro-13 2 h, then 8 h additional incubation with pro-13 5 μM) was 0.20±0.02% and 0.2% and the “decrease in fraction cell survival” value ([1]; pro-13 5 μM + BLM 2 μM vs BLM alone) was “more than 2 fold”. For the same compound, the fraction survival ([1]; pro-13 5 μM + MMS 0.1 mM, 2 h) was 0.23 and 0.21±0.04, the “fraction survival lower than expected from agents used separately” value ([1]; pro-13 5 μM + MMS 0.1 mM, 2 h) was “approximately 3.4 fold” and the “enhancement (potentiation) of MMS cytotoxicity” value ([1]; pro-13 5 μM + MMS 0.2 mM) was roughly 13 fold. For the same compound, the “enhancement (potentiation) of MMS cytotoxicity” value ([1]; pro-13 5 μM + MMS 0.2 mM, listed as Pro-13) was “approximately 13 fold”, the cells survived ([1]; pro-13 5 μM + MMS 0.2 mM, longer reaction time (2 h)) was less than 2% and the cells survive ([1]; pro-13 5 μM co-incubated with BLM 2 μM) was 43%. The abasic site repair ([2]; HeLa cells) was “inhibited”, the “AP/dRP sites/10^5 bp” value ([2]; HeLa, MMS 0.3 mM + pro-13 5 μM) was 28.0 ± 1.4 sites/10^5 bp and the “AP/dRP sites/10^5 bp” value ([2]; HeLa, MMS 0.4 mM + pro-13 5 μM) was 33.0 ± 1.5 sites/10^5 bp. For the same compound, the “increase in ARP reactive (abasic) sites vs MMS alone” value ([2]; HeLa, MMS + pro-13 5 μM) was “approximately 3 fold” and the “AP/dRP sites/10^5 bp” value ([2]; HeLa, pro-13 5 μM, no MMS) was 4.6 ± 1.0 sites/10^5 bp.
For bleomycin [BLM], the cell death ([1]; BLM 2 μM alone 2 h, 2 h recovery) was “No observable cell death” and the “DNA damage (tail length)” value [3] was “confirms DNA damage; also recorded: increase in the tail length”.
`COc1cc(Cl)c(/C=N/OC2C[C@H](n3cc(CNC(=O)c4cc5c(O)cccc5cc4O)c(=O)[nH]c3=O)O[C@@H]2COP(=O)(O)OCC2C[C@H](O)O[C@@H]2O)c(Cl)c1O` (stereo partly drawn) [Compound 13] was tested, and the “effect on Ape1 activity” value [4] was “does not affect”.
In the case of `COS(C)(=O)=O` [MMS, methyl methanesulfonate, reference compound], the “cell death, individual treatment” value ([1]; 2 h) is reported as 15%, the cells survived ([1]; MMS 0.2 mM without proinhibitor, 2 h) is reported as 25% and the “AP/dRP sites/10^5 bp” value ([2]; HeLa, MMS 0.3 mM, no pro-13) is reported as 9.2 ± 1.2 sites/10^5 bp. For the same compound, the “AP/dRP sites/10^5 bp” value ([2]; HeLa, MMS 0.4 mM, no pro-13) was 11.0 ± 1.5 sites/10^5 bp.

— patent US10711027B2, “DNA polymerase beta inhibitors” (The Johns Hopkins University, priority 2016, dated 2020)
